Values after ≈ are worked out from the molar mass of the structure shown.
Key:
[1] = Microsomal stability, human liver microsomes; type: in vitro ADME; details: pH 7.4; for microsomal CLint at 1 μM: human liver microsomes, read-out: HLM Clint(mic)
Experimental: (§1) Assays were performed by WuXi AppTec (Shanghai) Co., Ltd. The test compounds (Table 4) (at 1 μM) were incubated at 37 °C with liver microsomes from human or CD-1 mice in the presence of a NADPH regenerating system and phosphate buffer (100 mM, pH 7.4) at 0.5 mg/mL microsomal protein (the positive controls were testosterone, propafenone, and diclofenac). Samples were removed at time intervals of 0, 5, 10, 20, 30, and 60 min and immediately mixed with cold CH3CN (containing 0.1 μg/mL of tolbutamide as an internal standard) and then centrifuged prior to analysis by LCMS/MS.

[2] = tested on: Mycobacterium tuberculosis (strain H37Rv); assay: MABA minimum inhibitory concentration assay (aerobic/replicating); type: cell-based; details: Mycobacterium tuberculosis; M.tb H37Rv, aerobic/replicating; 90% inhibition of growth
[3] = tested on: VERO green monkey kidney cells; assay: VERO mammalian cell toxicity assay; type: cell-based; details: Chlorocebus sabaeus; inhibition of growth of VERO green monkey kidney epithelial cells
[4] = Microsomal stability, mouse liver microsomes; type: in vitro ADME; details: for CLint scaled at 1 μM / half-life at 1 μM: CD-1, mouse, microsomes, pH 7.4; for microsomal CLint at 1 μM: CD-1, pH 7.4, mouse liver microsomes, read-out: MLM Clint(mic)
Experimental: as §1

hERG = hERG (Homo sapiens, UniProt Q12809); assay: hERG channel blockade, manual patch clamp; type: cell-based; details: cloned hERG potassium channels, room temperature; for inhibition at 0.3 µM: read-out: hERG % inhib. at 0.3 µM; for inhibition at 1 µM: read-out: hERG % inhib. at 1.0 µM
hERG, sequence (Q12809 whole entry): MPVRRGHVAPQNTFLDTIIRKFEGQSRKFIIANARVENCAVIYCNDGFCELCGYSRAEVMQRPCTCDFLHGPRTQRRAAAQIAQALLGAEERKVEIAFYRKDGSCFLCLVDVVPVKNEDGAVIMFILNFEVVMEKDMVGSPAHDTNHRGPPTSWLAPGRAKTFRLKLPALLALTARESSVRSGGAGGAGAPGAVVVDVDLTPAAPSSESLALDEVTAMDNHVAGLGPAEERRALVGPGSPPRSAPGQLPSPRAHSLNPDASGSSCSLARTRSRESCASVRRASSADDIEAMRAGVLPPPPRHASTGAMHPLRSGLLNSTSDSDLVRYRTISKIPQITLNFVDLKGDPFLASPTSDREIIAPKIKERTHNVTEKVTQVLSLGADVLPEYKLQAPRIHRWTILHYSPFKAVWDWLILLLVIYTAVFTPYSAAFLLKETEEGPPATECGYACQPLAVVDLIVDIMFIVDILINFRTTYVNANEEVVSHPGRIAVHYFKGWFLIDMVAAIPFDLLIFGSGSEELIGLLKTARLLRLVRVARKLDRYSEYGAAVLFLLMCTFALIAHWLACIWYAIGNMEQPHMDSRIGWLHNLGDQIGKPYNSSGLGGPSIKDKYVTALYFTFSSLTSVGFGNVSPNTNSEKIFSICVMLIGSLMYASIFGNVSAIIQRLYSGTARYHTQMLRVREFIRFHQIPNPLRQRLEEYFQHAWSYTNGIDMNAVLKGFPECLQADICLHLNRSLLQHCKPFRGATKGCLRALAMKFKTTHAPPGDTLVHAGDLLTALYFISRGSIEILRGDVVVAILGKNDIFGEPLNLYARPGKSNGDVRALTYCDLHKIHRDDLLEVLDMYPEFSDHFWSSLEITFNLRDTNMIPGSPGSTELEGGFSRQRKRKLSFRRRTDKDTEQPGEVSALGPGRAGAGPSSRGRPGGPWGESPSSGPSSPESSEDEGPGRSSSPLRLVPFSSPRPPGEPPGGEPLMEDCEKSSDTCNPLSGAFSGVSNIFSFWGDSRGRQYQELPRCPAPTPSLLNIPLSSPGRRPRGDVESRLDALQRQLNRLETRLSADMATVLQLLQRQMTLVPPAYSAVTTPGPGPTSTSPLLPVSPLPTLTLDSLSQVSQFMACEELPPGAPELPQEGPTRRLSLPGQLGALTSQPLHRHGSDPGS
Experimental: Selected compounds were evaluated for hERG channel blockade (Table 4) by WuXi AppTec (Shanghai) Co., Ltd. This was carried out using cloned hERG potassium channels according to their standard manual patch clamp method. Two concentrations (0.3 and 1.0 µM) were tested (at room temperature), and at least three replicates were obtained for each. Amitryptyline was used as a standard.

[5] = tested on: Mycobacterium tuberculosis (strain H37Rv); assay: LORA minimum inhibitory concentration assay (low-oxygen/non-replicating); details: M.tb H37Rv, 90% inhibition of growth
[6] = human/mouse liver microsomes not distinguished, read-out: T½ values (microsomal stability)

| Structure (SMILES) | CLint scaled at 1 μM ([1]; human, microsomes) | half-life at 1 μM ([1]; human, microsomes) | microsomal CLint at 1 μM [1] | MIC90 [2] | IC50 [3] | CLint scaled at 1 μM [4] | half-life at 1 μM [4] | microsomal CLint at 1 μM [4] | inhibition at 0.3 µM (hERG) | inhibition at 1 µM (hERG) | MIC90 LORA [5] | half-life at 1 μM [1, 6] | melting point |
| --- | --- | --- | --- | --- | --- | --- | --- | --- | --- | --- | --- | --- | --- |
| Cc1cccc(-c2cc(NCc3ccccn3)n3ncc(-c4ccc(F)cc4)c3n2)c1 [Compound 30, 3-(4-Fluorophenyl)-N-(pyridin-2-ylmethyl)-5-(m-tolyl)pyrazolo[1,5-a]pyrimidin-7-amine] | < 8.6 mL/min/kg | > 2.42 h | < 9.6 µL/min/mg | 1.6 µg/mL (≈ 3.91 µM) | > 32 µg/mL | < 38 mL/min/kg | > 2.42 h | < 9.6 µL/min/mg | 3% | 11% | 0.9 µg/mL (≈ 2.2 µM) |  |  |
| Fc1ccc(-c2cnn3c(NCc4ccccn4)cc(-c4ccc(OC(F)(F)F)cc4)nc23)cc1 [Compound 38, 3-(4-Fluorophenyl)-N-(pyridin-2-ylmethyl)-5-(4-(trifluoromethoxy)phenyl)pyrazolo[1,5-a]pyrimidin-7-amine] | 15 mL/min/kg | 1.43 h | 16 µL/min/mg | 1.9 µg/mL (≈ 3.96 µM) | > 32 µg/mL | < 38 mL/min/kg | > 2.42 h | < 9.6 µL/min/mg | 2% | 2% | 1.1 µg/mL (≈ 2.29 µM) | < 1.42 h |  |
| Fc1ccc(-c2cnn3c(NCc4ccccn4)cc(-c4ccoc4)nc23)cc1 [Compound 44, 3-(4-Fluorophenyl)-5-(furan-3-yl)-N-(pyridin-2-ylmethyl)pyrazolo[1,5-a]pyrimidin-7-amine] | 66 mL/min/kg | 0.317 h | 74 µL/min/mg | 0.96 µg/mL (≈ 2.49 µM) | > 32 µg/mL | 570 mL/min/kg | 0.167 h | 144 µL/min/mg | 4% | 14% | 0.16 µg/mL (≈ 0.415 µM) | < 1.42 h |  |
| Cc1ccnc(CNc2cc(-c3ccccc3)nc3c(-c4ccc(F)cc4)cnn23)c1 [Compound 62, 3-(4-Fluorophenyl)-N-((4-methylpyridin-2-yl)methyl)-5-phenylpyrazolo[1,5-a]pyrimidin-7-amine] | < 8.6 mL/min/kg | > 2.42 h | < 9.6 µL/min/mg | 1.8 µg/mL (≈ 4.4 µM) | > 32 µg/mL | < 38 mL/min/kg | > 2.42 h | < 9.6 µL/min/mg |  |  | 0.5 µg/mL (≈ 1.22 µM) |  | 157 to 159 °C |
| CC(C)(C)c1ccc(-c2cc(NCc3ccccn3)n3ncc(-c4ccc(F)cc4)c3n2)cc1 [Compound 36, 5-(4-(Tert-butyl)phenyl)-3-(4-fluorophenyl)-N-(pyridin-2-ylmethyl)pyrazolo[1,5-a]pyrimidin-7-amine] | < 8.6 mL/min/kg | > 2.42 h | < 9.6 µL/min/mg | 1.7 µg/mL (≈ 3.76 µM) | > 32 µg/mL | < 38 mL/min/kg | > 2.42 h | < 9.6 µL/min/mg | 0% | 0% | 1.9 µg/mL (≈ 4.21 µM) |  |  |
| CC(C)c1ccc(-c2cc(NCc3ccccn3)n3ncc(-c4ccc(F)cc4)c3n2)cc1 [Compound 35, 3-(4-Fluorophenyl)-5-(4-isopropylphenyl)-N-(pyridin-2-ylmethyl)pyrazolo[1,5-a]pyrimidin-7-amine] | < 8.6 mL/min/kg | > 2.42 h | < 9.6 µL/min/mg | 1.8 µg/mL (≈ 4.11 µM) | > 32 µg/mL | < 38 mL/min/kg | > 2.42 h | < 9.6 µL/min/mg | 1% | 1% | 1.0 µg/mL (≈ 2.29 µM) |  |  |
| Fc1ccc(-c2cnn3c(NCc4ccccn4)cc(C4CC4)nc23)cc1 [Compound 25, 5-Cyclopropyl-3-(4-fluorophenyl)-N-(pyridin-2-ylmethyl)pyrazolo[1,5-a]pyrimidin-7-amine] | 68 mL/min/kg | 0.3 h | 76 µL/min/mg | 1.54 µg/mL (≈ 4.28 µM) | 23.4 µg/mL (≈ 65.1 µM) | 424 mL/min/kg | 0.217 h | 107 µL/min/mg | 8% | 19% | 0.20 µg/mL (≈ 0.556 µM) | < 1.42 h |  |
| Fc1ccc(-c2cnn3c(NCc4ccccn4)cc(-c4ccccc4F)nc23)cc1 [Compound 28, 5-(2-Fluorophenyl)-3-(4-fluorophenyl)-N-(pyridin-2-ylmethyl)pyrazolo[1,5-a]pyrimidin-7-amine] | 18 mL/min/kg | 1.15 h | 20 µL/min/mg | 1.79 µg/mL (≈ 4.33 µM) | > 32 µg/mL | 113 mL/min/kg | 0.817 h | 29 µL/min/mg | 17% | 36% | 0.22 µg/mL (≈ 0.532 µM) | < 1.42 h |  |
| COc1ccc(-c2cc(NCc3ccccn3)n3ncc(-c4ccc(F)cc4)c3n2)cc1 [Compound 34, 3-(4-Fluorophenyl)-5-(4-methoxyphenyl)-N-(pyridin-2-ylmethyl)pyrazolo[1,5-a]pyrimidin-7-amine] | 16 mL/min/kg | 1.28 h | 18 µL/min/mg | 1.5 µg/mL (≈ 3.53 µM) | > 32 µg/mL | 88 mL/min/kg | 1.05 h | 22 µL/min/mg | 0% | 1% | 0.25 µg/mL (≈ 0.588 µM) | < 1.42 h |  |
| Fc1ccc(-c2cnn3c(NCc4ccccn4)cc(-c4cccs4)nc23)cc1 [Compound 41, 3-(4-Fluorophenyl)-N-(pyridin-2-ylmethyl)-5-(thiophen-2-yl)pyrazolo[1,5-a]pyrimidin-7-amine] | 75 mL/min/kg | 0.283 h | 83 µL/min/mg | 0.99 µg/mL (≈ 2.47 µM) | > 32 µg/mL | 163 mL/min/kg | 0.567 h | 41 µL/min/mg | 0% | 0% | 0.36 µg/mL (≈ 0.897 µM) | < 1.42 h |  |
| COc1ccc(CNc2cc(-c3ccccc3)nc3c(-c4ccc(F)cc4)cnn23)nc1 [Compound 54, 3-(4-Fluorophenyl)-N-((5-methoxypyridin-2-yl)methyl)-5-phenylpyrazolo[1,5-a]pyrimidin-7-amine] | < 8.6 mL/min/kg | > 2.42 h | < 9.6 µL/min/mg | 3.6 µg/mL (≈ 8.46 µM) | > 32 µg/mL | < 38 mL/min/kg | > 2.42 h | < 9.6 µL/min/mg |  |  | 1.3 µg/mL (≈ 3.06 µM) |  | 212 to 214 °C |
